The values that follow come from doi:10.1101/2025.07.03.662851v1 (biorxiv, 2025).

This experiment has as its target T1, recombinant wild-type human asparagine synthetase (ASNS) (Homo sapiens, UniProt P08243).
T1 sequence (P08243 2-561): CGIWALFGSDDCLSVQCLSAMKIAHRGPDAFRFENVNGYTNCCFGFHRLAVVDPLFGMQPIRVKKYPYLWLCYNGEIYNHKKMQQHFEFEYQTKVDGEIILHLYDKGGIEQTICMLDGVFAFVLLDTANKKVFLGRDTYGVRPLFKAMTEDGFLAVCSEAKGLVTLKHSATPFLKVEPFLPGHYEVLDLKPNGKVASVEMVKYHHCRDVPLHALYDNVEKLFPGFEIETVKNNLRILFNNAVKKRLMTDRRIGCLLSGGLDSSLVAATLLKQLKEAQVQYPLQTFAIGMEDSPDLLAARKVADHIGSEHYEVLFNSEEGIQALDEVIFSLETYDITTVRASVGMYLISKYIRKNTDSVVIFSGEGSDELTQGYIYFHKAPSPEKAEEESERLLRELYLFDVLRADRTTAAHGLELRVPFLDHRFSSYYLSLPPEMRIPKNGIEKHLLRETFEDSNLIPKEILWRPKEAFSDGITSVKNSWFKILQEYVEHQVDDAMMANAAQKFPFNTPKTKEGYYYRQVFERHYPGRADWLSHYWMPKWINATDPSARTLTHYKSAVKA
Nature of the experiment: PPi production, continuous NADH-coupled assay. It counts as biochemical.

In general, Ki refers to the equilibrium dissociation constant of an inhibitor or competing ligand from its target. On to `CC[C@H](N)C(=O)N1C[C@@H](c2ccc(F)cc2)[C@H](O)[C@@H]1C(=O)NC(c1ccccc1)c1ccccc1` [ASX-173], for which the inhibitory constant (Ki) worked out at 400 pM.
